20 compounds from US9029391B2 (priority 2011, dated 2015) can be followed below.

Usually IC50 stands for the midpoint of a concentration-inhibition curve.

The test system of this assay is HIV. Nature of the assay: MT4 Assay (anti-HIV activity). The assay is classed as cell-based. The note with it: Human immunodeficiency virus 1, 96 h, read-out: HIV MT4 Assay IC50, HTLV-1 transformed cell line MT-4, cell titer glo, 10 point dose response curve. As for the experimental part:
Antiviral HIV activity and cytotoxicity values for compounds of the invention from Table 1 were measured in parallel in the HTLV-1 transformed cell line MT-4 based on the method previously described (Hazen et al., 2007, In vitro antiviral activity of the novel, tyrosyl-based human immunodeficiency virus (HIV) type 1 protease inhibitor brecanavir (GW640385) in combination with other antiretrovirals and against a panel of protease inhibitor-resistant HIV (Hazen et al., “In vitro antiviral activity of the novel, tyrosyl-based human immunodeficiency virus (HIV) type 1 protease inhibitor brecanavir (GW640385) in combination with other antiretrovirals and against a panel of protease inhibitor-resistant HIV”, Antimicrob. Agents Chemother. 2007, 51: 3147-3154; and Pauwels et al., “Sensitive and rapid assay on MT-4 cells for the detection of antiviral compounds against the AIDS virus”, J. of Virological Methods 1987, 16: 171-185).
Luciferase activity was measured 96 hours later by adding a cell titer glo (Promega, Madison, Wis.). Percent inhibition of cell protection data was plotted relative to no compound control. Under the same condition, cytotoxicity of the compounds was determined using cell titer glo (Promega, Madison, Wis.). IC50s were determined from a 10 point dose response curve using 3-4-fold serial dilution for each compound, which spans a concentration range >1000 fold.
On the technique in general: Cellular ATP, detected with luciferase, serves as a proxy for viable cell number.
With `Cc1c(-c2c([C@H](OC(C)(C)C)C(=O)O)n(C)c(=O)c3cc(-c4ccnn4C)ccc23)cc(F)c2c1CCCO2` (atropisomer, axis not shown; (M)) [Example 195, (2S)(M)-[(1,1-dimethylethyl)oxy][4-(8-fluoro-5-methyl-3,4-dihydro-2H-chromen-6-yl)-2-methyl-7-(1-methyl-1H-pyrazol-5-yl)-1-oxo-1,2-dihydro-3-isoquinolinyl]ethanoic acid], the 50% inhibitory concentration (IC50) turned out to be 140 nM. To `Cc1c(-c2c(C(OC(C)(C)C)C(=O)O)n(C)c(=O)c3ccccc23)cc(Cl)c2c1CCCO2` (centres unmarked) [Example 70, 2-(tert-butoxy)-2-[4-(8-chloro-5-methyl-3,4-dihydro-2H-1-benzopyran-6-yl)-2-methyl-1-oxo-1,2-dihydroisoquinolin-3-yl]acetic acid] belongs 1230 nM. The result for `Cc1c(-c2c(C(OC(C)(C)C)C(=O)O)n(C)c(=O)c3cc(OCc4cccs4)ccc23)ccc2c1CCCO2` (centres unmarked) [Example 142, 2-(tert-butoxy)-2-[2-methyl-4-(5-methyl-3,4-dihydro-2H-1-benzopyran-6-yl)-1-oxo-7-(thiophen-2-ylmethoxy)-1,2-dihydroisoquinolin-3-yl]acetic acid] reads 30 nM; that for `Cc1c(-c2c([C@H](OC(C)(C)C)C(=O)O)n(C)c(=O)c3cc(N4CCOCC4)ccc23)cc(F)c2c1CCCO2` (atropisomer, axis not shown; (M)) [Example 168, (S)(M)-2-(tert-butoxy)-2-(4-(8-fluoro-5-methylchroman-6-yl)-2-methyl-7-morpholino-1-oxo-1,2-dihydroisoquinolin-3-yl)acetic acid], 260 nM; that for `Cc1c(-c2c(C(OC(C)(C)C)C(=O)O)n(C)c(=O)c3cc(OCc4ccc(OC(F)(F)F)cc4)ccc23)ccc2c1CCCO2` (centres unmarked) [Example 146, 2-(tert-butoxy)-2-[2-methyl-4-(5-methyl-3,4-dihydro-2H-1-benzopyran-6-yl)-1-oxo-7-{[4-(trifluoromethoxy)phenyl]-methoxy}-1,2-dihydroisoquinolin-3-yl]acetic acid], 260 nM. In the case of `Cc1c(-c2c(C(OC(C)(C)C)C(=O)O)n(C)c(=O)c3cc(OCCN4CCCC4)ccc23)ccc2c1CCCO2` (centres unmarked) [Example 117, 2-(tert-butoxy)-2-[2-methyl-4-(5-methyl-3,4-dihydro-2H-1-benzopyran-6-yl)-1-oxo-7-[2-(pyrrolidin-1-yl)ethoxy]-1,2-dihydroisoquinolin-3-yl]acetic acid], the half-inhibitory concentration (IC50) is 4090 nM. To `COc1cc(-c2c(C(OC(C)(C)C)C(=O)O)n(C)c(=O)c3ccccc23)cc(OC)c1OC` (centres unmarked) [Example 27, 2-(tert-butoxy)-2-[2-methyl-1-oxo-4-(3,4,5-trimethoxyphenyl)-1,2-dihydroisoquinolin-3-yl]acetic acid] belongs 50000 nM; to `CCc1ccc(-c2c(C(OC(C)(C)C)C(=O)O)n(C)c(=O)c3ccccc23)cc1` (centres unmarked) [Example 47, 2-(tert-butoxy)-2-[4-(4-ethylphenyl)-2-methyl-1-oxo-1,2-dihydroisoquinolin-3-yl]acetic acid], 1850 nM. Regarding `Cc1cc(C)c(-c2c(C(OC(C)(C)C)C(=O)O)n(C)c(=O)c3ccccc23)cc1C` (centres unmarked) [Example 43, 2-(tert-butoxy)-2-[2-methyl-1-oxo-4-(2,4,5-trimethylphenyl)-1,2-dihydroisoquinolin-3-yl]acetic acid], the 50% inhibitory concentration (IC50) amounted to 370 nM. Take `Cc1cc(-c2c(C(OC(C)(C)C)C(=O)O)n(C)c(=O)c3ccccc23)cc(C)c1Cl` (centres unmarked) [Example 66, 2-(tert-butoxy)-2-[4-(4-chloro-3,5-dimethylphenyl)-2-methyl-1-oxo-1,2-dihydroisoquinolin-3-yl]acetic acid]: the IC50 came out at 3600 nM. The result for `Cc1c(-c2c([C@H](OC(C)(C)C)C(=O)NO)n(C)c(=O)c3ccccc23)cc(F)c2c1CCCO2` (atropisomer, axis not shown; (M)) [Example 213, (S)(M)-2-(tert-butoxy)-2-(4-(8-fluoro-5-methylchroman-6-yl)-2-methyl-1-oxo-1,2-dihydroisoquinolin-3-yl)-N-hydroxyacetamide] reads 5250 nM.

Regarding `COc1ccc(Cc2ccc3c(-c4ccc(C)c(C)c4)c(C(OC(C)(C)C)C(=O)O)n(C)c(=O)c3c2)cc1` (centres unmarked) [Example 171, [(1,1-dimethylethyl)oxy](4-(3,4-dimethylphenyl)-2-methyl-7-{[4-(methyloxy)phenyl]methyl}-1-oxo-1,2-dihydro-3-isoquinolinyl)acetic acid], the IC50 was 1300 nM. The result for `Cc1c(-c2c(C(OC(C)(C)C)C(=O)O)n(C)c(=O)c3cc(F)ccc23)ccc2c1CCCO2` (centres unmarked) [Example 75, 2-(tert-butoxy)-2-[7-fluoro-2-methyl-4-(5-methyl-3,4-dihydro-2H-1-benzopyran-6-yl)-1-oxo-1,2-dihydroisoquinolin-3-yl]acetic acid] reads 390 nM; that for `Cc1ccc2c(-c3ccc4c(c3C)CCCO4)c(C(OC(C)(C)C)C(=O)O)n(C)c(=O)c2c1` (centres unmarked) [Example 67, 2-(tert-butoxy)-2-[2,7-dimethyl-4-(5-methyl-3,4-dihydro-2H-1-benzopyran-6-yl)-1-oxo-1,2-dihydroisoquinolin-3-yl]acetic acid], 120 nM; that for `Cc1ccc2c(-c3cc(F)c4c(c3C)CCCO4)c(C(OC(C)(C)C)C(=O)O)n(C)c(=O)c2c1` (centres unmarked) [Example 124, 2-(tert-butoxy)-2-[4-(8-fluoro-5-methyl-3,4-dihydro-2H-1-benzopyran-6-yl)-2,7-dimethyl-1-oxo-1,2-dihydroisoquinolin-3-yl]acetic acid], 130 nM. As to `Cc1c(-c2c([C@H](OC(C)(C)C)C(=O)O)n(C)c(=O)c3cc(Cc4ccccc4)ccc23)cc(F)c2c1CCCO2` (atropisomer, axis not shown; (M)) [Example 175, (2S)(M)-[(1,1-dimethylethyl)oxy][4-(8-fluoro-5-methyl-3,4-dihydro-2H-chromen-6-yl)-2-methyl-1-oxo-7-(phenylmethyl)-1,2-dihydro-3-isoquinolinyl]ethanoic acid], the IC50 was 70 nM. As to `Cc1c(-c2c(C(OC(C)(C)C)C(=O)O)n(C)c(=O)c3cc(OCc4cc(F)ccc4F)ccc23)ccc2c1CCCO2` (centres unmarked) [Example 95, 2-(tert-butoxy)-2-{7-[(2,5-difluorophenyl)methoxy]-2-methyl-4-(5-methyl-3,4-dihydro-2H-1-benzopyran-6-yl)-1-oxo-1,2-dihydroisoquinolin-3-yl}acetic acid], the IC50 is 90 nM.

Turning to `Cc1c(-c2c(C(OC(C)(C)C)C(=O)O)n(C)c(=O)c3cc(OCc4cccc(F)c4F)ccc23)ccc2c1CCCO2` (centres unmarked) [Example 96, 2-(tert-butoxy)-2-{7-[(2,3-difluorophenyl)methoxy]-2-methyl-4-(5-methyl-3,4-dihydro-2H-1-benzopyran-6-yl)-1-oxo-1,2-dihydroisoquinolin-3-yl}acetic acid], the IC50 turned out to be 70 nM. To `Cc1c(-c2c([C@H](OC(C)(C)C)C(=O)O)n(C)c(=O)c3cc(OCc4ccc(Cl)s4)ccc23)cc(F)c2c1CCCO2` [Example 110, (2S)-2-(tert-butoxy)-2-{7-[(5-chlorothiophen-2-yl)methoxy]-4-(8-fluoro-5-methyl-3,4-dihydro-2H-1-benzopyran-6-yl)-2-methyl-1-oxo-1,2-dihydroisoquinolin-3-yl}acetic acid] belongs 40 nM; to `COc1cccc(-c2c(C(OC(C)(C)C)C(=O)O)n(C)c(=O)c3ccccc23)c1` (centres unmarked) [Example 15, 2-(tert-butoxy)-2-[4-(3-methoxyphenyl)-2-methyl-1-oxo-1,2-dihydroisoquinolin-3-yl]acetic acid], 8590 nM.
